From PMC5342726, “Identification of small molecule inhibitors of ERCC1-XPF that inhibit DNA repair and potentiate cisplatin efficacy in cancer cells” (Oncotarget, 2016)

Legend:
XPG = biological target: T1, XPG (Homo sapiens, UniProt P28715); experiment: Secondary screen, fluorescence assay with XPG endonuclease; type: biochemical; details: compound titration in the HTS assay
T1 sequence (P28715 1-1186): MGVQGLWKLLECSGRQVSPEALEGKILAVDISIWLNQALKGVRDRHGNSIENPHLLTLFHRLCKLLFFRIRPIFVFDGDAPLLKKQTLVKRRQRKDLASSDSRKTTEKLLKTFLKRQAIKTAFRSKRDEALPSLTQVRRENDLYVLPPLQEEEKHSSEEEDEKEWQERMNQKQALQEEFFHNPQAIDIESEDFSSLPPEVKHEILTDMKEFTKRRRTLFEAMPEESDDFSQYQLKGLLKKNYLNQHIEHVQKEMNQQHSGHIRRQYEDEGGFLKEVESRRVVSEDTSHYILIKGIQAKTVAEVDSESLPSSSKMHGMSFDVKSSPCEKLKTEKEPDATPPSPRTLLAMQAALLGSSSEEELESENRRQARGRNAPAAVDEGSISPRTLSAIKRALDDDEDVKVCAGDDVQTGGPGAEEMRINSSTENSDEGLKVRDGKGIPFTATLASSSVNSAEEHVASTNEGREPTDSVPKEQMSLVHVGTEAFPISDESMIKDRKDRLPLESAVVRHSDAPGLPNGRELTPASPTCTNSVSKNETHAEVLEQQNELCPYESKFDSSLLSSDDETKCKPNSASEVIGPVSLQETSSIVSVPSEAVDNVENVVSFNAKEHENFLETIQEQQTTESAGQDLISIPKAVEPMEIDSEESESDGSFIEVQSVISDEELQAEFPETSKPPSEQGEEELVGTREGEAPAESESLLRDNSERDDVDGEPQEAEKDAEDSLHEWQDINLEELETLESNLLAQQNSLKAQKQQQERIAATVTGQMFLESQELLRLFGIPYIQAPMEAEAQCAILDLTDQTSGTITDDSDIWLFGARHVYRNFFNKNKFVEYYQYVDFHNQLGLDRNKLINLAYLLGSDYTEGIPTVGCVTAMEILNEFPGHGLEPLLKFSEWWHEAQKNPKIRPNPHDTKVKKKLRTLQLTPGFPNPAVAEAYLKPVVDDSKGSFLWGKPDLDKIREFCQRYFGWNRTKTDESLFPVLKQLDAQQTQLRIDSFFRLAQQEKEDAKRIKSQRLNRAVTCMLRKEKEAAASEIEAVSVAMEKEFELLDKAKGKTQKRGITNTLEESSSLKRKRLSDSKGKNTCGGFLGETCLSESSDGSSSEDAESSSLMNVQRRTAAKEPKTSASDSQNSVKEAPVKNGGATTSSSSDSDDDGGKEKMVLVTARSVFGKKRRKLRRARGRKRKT

H460 cells = experiment: Cisplatin interstrand crosslink repair by comet assay; type: cell-based; details: compound 15 μM 2 h then cisplatin at IC90; 0-72 h
Protocol: (B) After treatment, comet assay was performed as described at different time intervals (0, 24, 48 and 72 h). The percentage of interstrand crosslinks remaining was calculated using olive tail moment. Results are represented as mean ± SEM of three independent experiments.
The data is expressed as the percentage of crosslinks remaining at the time points assessed.
Cells were treated with compound (Hit control (9:1 DMSO-glycerol). After incubation at 37°C 1 or Hit 2) and cisplatin or just cisplatin alone in serum for 30 minutes, 2 μL of the pre-incubate was diluted into a free media. […] Cells were further treated with 100 μM
Cells were then trypsinized, pelleted and resuspended in 1% low melting point agarose.

ERCC1-XPF = biological target: T2, ERCC1-XPF (Homo sapiens, UniProt P07992+Q92889); experiment: EMSA, binding of ERCC1-XPF to DNA; details: for effect on binding of purified ERCC1-XPF to DNA: compound titration, concentrations used in further in vitro experiments
T2 construct: made in house; host or cells: Sf9 insect cells, baculovirus (obtained from Aziz Sancar)
T2 sequence (Q92889 1-916): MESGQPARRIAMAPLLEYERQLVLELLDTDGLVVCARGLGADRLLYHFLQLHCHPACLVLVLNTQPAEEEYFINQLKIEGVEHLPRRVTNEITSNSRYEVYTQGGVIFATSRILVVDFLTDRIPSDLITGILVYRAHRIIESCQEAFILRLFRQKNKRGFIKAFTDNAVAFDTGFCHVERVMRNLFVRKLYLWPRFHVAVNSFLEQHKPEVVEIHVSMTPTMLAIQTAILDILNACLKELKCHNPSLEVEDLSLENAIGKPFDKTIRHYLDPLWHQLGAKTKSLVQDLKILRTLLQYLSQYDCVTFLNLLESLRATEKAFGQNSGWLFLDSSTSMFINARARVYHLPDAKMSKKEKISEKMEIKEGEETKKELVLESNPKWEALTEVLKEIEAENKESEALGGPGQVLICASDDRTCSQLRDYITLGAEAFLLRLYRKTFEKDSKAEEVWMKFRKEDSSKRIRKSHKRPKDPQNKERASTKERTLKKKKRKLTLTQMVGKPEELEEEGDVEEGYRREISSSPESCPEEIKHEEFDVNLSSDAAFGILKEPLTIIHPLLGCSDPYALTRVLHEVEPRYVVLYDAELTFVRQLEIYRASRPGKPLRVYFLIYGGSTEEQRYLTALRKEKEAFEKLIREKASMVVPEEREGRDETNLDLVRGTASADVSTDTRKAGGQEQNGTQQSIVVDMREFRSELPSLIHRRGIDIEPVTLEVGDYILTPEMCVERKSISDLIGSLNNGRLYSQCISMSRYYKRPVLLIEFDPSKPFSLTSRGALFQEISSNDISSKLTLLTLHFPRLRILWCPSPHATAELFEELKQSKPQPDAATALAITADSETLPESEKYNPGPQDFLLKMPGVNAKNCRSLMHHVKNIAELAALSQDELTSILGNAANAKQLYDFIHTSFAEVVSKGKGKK
T2 sequence (P07992 1-297): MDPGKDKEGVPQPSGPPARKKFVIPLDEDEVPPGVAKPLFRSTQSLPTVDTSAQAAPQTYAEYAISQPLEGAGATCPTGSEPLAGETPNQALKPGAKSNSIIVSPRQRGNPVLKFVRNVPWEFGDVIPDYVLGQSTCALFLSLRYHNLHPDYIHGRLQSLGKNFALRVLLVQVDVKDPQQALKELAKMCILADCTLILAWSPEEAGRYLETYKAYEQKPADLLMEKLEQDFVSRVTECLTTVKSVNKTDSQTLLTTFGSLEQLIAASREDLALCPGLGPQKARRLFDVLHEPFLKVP
Protocol: In order to study if the compounds' inhibitory activity of ERCC1-XPF incision is due to inhibition of DNA binding ability, we performed EMSAs [23]. […] In this assay, we incubated the titrated Hit 1 or 2 respectively with purified ERCC1-XPF on ice and reactions were initiated by the addition of the 5'-[^32P] radiolabeled DNA substrate 37°C. The samples were separated on a 10% native gel and the products were visualized via phosphorimager analysis.
Sciences Core at Karmanos Cancer Institute using DNA Binding-electrophoretic mobility shift assay
was used for testing the effect of compounds on the DNA
in SF9 insect cells using a baculovirus expression system requires metal for DNA incision, MgCl2 was excluded
0.1M EDTA was added to the
Post incubation, glutaraldehyde was added to a final
column, which was initially loaded and washed with a low minutes at 37°C. The reaction was run on a 10% native

HhaI = experiment: Secondary screen, fluorescence assay with HhaI endonuclease; type: biochemical; details: compound titration in the HTS assay

SMILES: Oc1cc(O)c2c(c1)OC(c1ccc(O)c(O)c1)C(O)C2c1c(O)cc(O)c2c1OC(c1ccc(O)c(O)c1)C(O)C2 (stereo not drawn) [NSC143099]
- effect on XPG activity (XPG): some effect on XPG activity at higher concentrations
- effect on ICL repair (H460 cells): ICL repair was significantly reduced
- effect on binding of purified ERCC1-XPF to DNA (ERCC1-XPF): does not affect the binding of purified ERCC1-XPF to DNA
- effect on HhaI activity (HhaI): no effect on HhaI activity

SMILES: Cc1ccc(S(=O)(=O)Oc2cc(S(=O)(=O)O)cc3cc(S(=O)(=O)O)cc(N)c23)cc1 [NSC16168]
- effect on XPG activity (XPG): no effect
- effect on ICL repair (H460 cells): does not have any effect on ICL repair
- effect on binding of purified ERCC1-XPF to DNA (ERCC1-XPF): does not affect DNA binding of ERCC1-XPF
- effect on binding of ERCC1-XPF to DNA at the highest concentrations (ERCC1-XPF; highest concentrations): minor effect on the DNA binding
- effect on HhaI activity (HhaI): no effect
